According to patent US12144821B1, “Selective 3-prenyl 5-methyl ether, 7-o-rhamnoside flavone for the treatment of hepatic cancer” (KING FAISAL UNIVERSITY, priority 2024, dated 2024):

Assays:
Assay type in all cases: cell-based, human
HepG2 cells [1] = assay: Invasion assay; conditions: non-cytotoxic concentrations, FIGS. 3A-3B
Procedure: (§1) During the metastatic cascade of carcinomas, tumor migration and invasion is the first and most important steps. It involves profound changes in cell adhesion, allowing tumour cells to dissociate and migrate from the primary site. […] Several essential steps of metastasis, including migration (FIGS. 2A-2B) invasion (FIG. 3A-3B) of human liver cancer cells, are inhibited by the 3-prenyl 5-methyl ether, 7-O-rhamnoside.
(§2) The migration and invasion assays were conducted by photographing the cells that migrated the membrane (200× magnification). As illustrated in FIGS. 2A-2B HepG2 cells were treated with 3-prenyl 5-methyl ether, 7-O-rhamnoside at indicated doses for 24 hours. The percentage inhibition of migrating cells was quantified and expressed based on untreated cells (control) represented 100%. The migration was determined by the areas of the wound closure calculated from three microscopic fields per sample.
As illustrated in FIGS. 3A-3B, invasiveness was determined by counting cells in three microscopic fields per sample. The inhibitory percentage of invading cells was quantified and expressed with untreated cells (control) representing 100%. Values are mean±SD of three independent experiments. (p<0.01 compared untreated cells).

HepG2 cancer cell line = assay: Cell viability assay (MTT), antiproliferative screening; conditions: FIGS. 1A-1C
Procedure: Cells (HepG2) were provided from the American Type Culture Collection (ATCC) unless otherwise stated. Cells were grown in ATCC-formulated specific DMEM/F12 medium for each cell line with supplements of 5% fetal bovine serum, 10 U/ml penicillin, 10 μg/ml streptomycin, and 4% glutamine. All cell lines were placed in a humidified incubator a 37° C. in an atmosphere of 5% CO2 and 95% air. Cells were cultured into two groups. One as control cells and the other as cell lines treated for one day (3-prenyl 5-methyl ether, 7-O-rhamnoside-treated cells).
The cell viability will be tested using MTT. […] The culture supernatant was removed, the remaining MTT formazan crystals was dissolved in 400 μL of DMSO, and the absorbance was measured at 570 nm using an ELISA micro-plate reader (Bio-Tek Instruments, Winooski, VT, USA). The effect of 3-prenyl 5-methyl ether, 7-O-rhamnoside on cell viability was assessed as the percentage of viable cells compared with the vehicle-treated control cells, which were arbitrarily designated as 100%.
The cells were treated with increasing concentrations of 3-prenyl 5-methyl ether, 7-O-rhamnoside, (0-5, 10, 15, 20 and 25 μmol/mL for 24,48 and 72 h. The viability was assessed using the MTT assay. Values are mean±SD of three independent experiments. (p<0.01 compared untreated cells).

HepG2 cells [2] = assay: Migration assay (wound closure); conditions: non-cytotoxic concentrations, 24 hours, FIGS. 2A-2B
Procedure: as §1, §2

COc1cc(OC2OC(C)C(O)C(O)C2O)cc2oc(-c3ccc(O)cc3)c(CC=C(C)C)c(=O)c12 (stereo not shown) [3-prenyl 5-methyl ether, 7-O-rhamnoside, apigenin 3-prenyl 5-methyl ether, 7-O-rhamnoside]
invasion of human liver cancer cells (HepG2 cells [1]): inhibited | cytotoxicity for the HepG2 cancer cell line (cell viability, MTT) (HepG2 cancer cell line; 0, 5, 10, 15, 20 and 25 μmol, 24, 48 and 72 hrs): potentially cytotoxic | dose-dependent potentiation / enhancement of anti-proliferative effects (HepG2 cancer cell line; seen at both 15 and 20 μmol): Potentiation | migration of human liver cancer cells (HepG2 cells [2]): inhibited
